Results as given in patent US20250122190A1, “HALOGEN-SUBSTITUTED PYRIDAZINONE COMPOUND AND APPLICATION THEREOF” (MEDSHINE DISCOVERY INC., priority 2021, published 2025).

Experiments:
TRPC5 [1] = conditions: TRPC5 inhibition; cited from earlier work
TRPC5 [2] = conditions: TRPC5 inhibition; cited from earlier work; remark: listed apart in the source
hTRPC5-T478C [3] = molecular target: T1, hTRPC5-T478C (Homo sapiens, UniProt Q9UL62); assay: hTRPC5-T478C FLIPR calcium flux IC50 assay; format: cell-based; conditions: hTRPC5-T478C-HEK cells, Englerin A as channel agonist
T1 sequence (Q9UL62 1-973): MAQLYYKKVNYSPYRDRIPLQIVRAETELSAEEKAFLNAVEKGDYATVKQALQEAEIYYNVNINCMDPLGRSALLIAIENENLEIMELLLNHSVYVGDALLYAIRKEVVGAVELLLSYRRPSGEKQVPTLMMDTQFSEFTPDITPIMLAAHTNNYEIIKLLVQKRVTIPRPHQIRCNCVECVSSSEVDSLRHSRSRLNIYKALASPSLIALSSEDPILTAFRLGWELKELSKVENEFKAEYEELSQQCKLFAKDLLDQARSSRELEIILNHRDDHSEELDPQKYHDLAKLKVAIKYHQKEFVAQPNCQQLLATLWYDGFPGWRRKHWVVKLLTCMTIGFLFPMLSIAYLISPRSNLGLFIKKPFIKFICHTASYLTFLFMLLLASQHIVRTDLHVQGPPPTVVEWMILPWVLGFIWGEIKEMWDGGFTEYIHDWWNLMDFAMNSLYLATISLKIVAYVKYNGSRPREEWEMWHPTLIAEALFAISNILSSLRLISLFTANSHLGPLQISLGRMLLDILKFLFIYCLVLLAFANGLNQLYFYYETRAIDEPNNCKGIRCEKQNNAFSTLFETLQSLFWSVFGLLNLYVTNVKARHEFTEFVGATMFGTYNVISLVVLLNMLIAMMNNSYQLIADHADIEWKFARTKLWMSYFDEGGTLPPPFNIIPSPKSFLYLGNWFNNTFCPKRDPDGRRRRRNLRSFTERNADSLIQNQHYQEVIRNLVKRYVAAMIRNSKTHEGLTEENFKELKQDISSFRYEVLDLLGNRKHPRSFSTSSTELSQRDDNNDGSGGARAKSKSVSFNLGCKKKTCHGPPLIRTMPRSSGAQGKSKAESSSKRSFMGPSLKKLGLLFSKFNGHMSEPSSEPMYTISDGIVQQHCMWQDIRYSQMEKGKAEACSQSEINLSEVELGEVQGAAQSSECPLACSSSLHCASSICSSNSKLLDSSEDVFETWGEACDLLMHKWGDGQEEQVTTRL
Protocol: (§1) Cell culture: hTRPC5-T478C-HEK cells were cultured in a humid environment in 5% CO2 at 37° C.
(§2) Cell culture medium ingredients: • DMEM, Supplier: Gibco, Catalog No. 11965-092; • FBS, Supplier: Gibco, Catalog No. 10099-141C, Concentration: 10%; • Pen/Strep, Supplier: Invitrogen, Catalog No. 15140-122, Concentration: 1%; • Zeocin, Supplier: Invitrogen, Catalog No. R25005, Concentration: 200 μg/mL; • Blasticidin S, Supplier: Invitrogen, Catalog No. R21001, Concentration: 5 μg/mL.
(§3) In general, the TRPC5-T478C cell line was passaged three times weekly. The dilution factor for each passage was 1:3. Once the cells reached about 80% confluence in the T-75 flask, the cell line was digested with trypsin for about 1 minute and the cell suspension was removed from the flask with a pipette. Depending on the dilution ratio, the removed cell suspension would be transferred to another T-75 flask containing cell culture medium. Note that in order to maintain the logarithmic growth of the cells, the confluence of the cells should be maintained at the subconfluent stage and the cells should be passaged once every 2 to 3 days depending on the proliferation rate of the cell line.
(1) Preparation of cell plate: the cells were separated according to the above-mentioned passaging and the cell density and viability were determined using a cell counter. The volume of the cell suspension was adjusted with a cell culture medium. After the density reached to the plating density, 1 μg/mL tetracycline was added to induce hTRPC5-T478C channel expression. The induced hTRPC5-T478C cells were then seeded onto poly-D-lysine (PDL)-coated 384-well plates at a density of 20000 cells/well (30 μL/well). Then the cells were cultured overnight in a cell culture incubator.
(2) Preparation of compound plate: the compounds were generally diluted with DMSO, prepared into a mother liquor and stored in a −20° C. refrigerator. A compound plating program was set on the ECHO processor, and the compounds were plated with ECHO according to the concentration gradient that was already set. In general, 9 concentrations were included with the highest concentration at 10 μM, 3-fold dilution, and 2 replicate wells. Englerin A was used as the channel agonist.
(3) On-machine testing: the cell plates and compound plates were prepared according to the above-mentioned methods. After the cell confluence of the cell plate reached 80%-90%, the cells were removed from the incubator and the testing started. Ca5 dye (Molecular Devices #R8185) was formulated with test buffer. After the cell plate culture medium was removed with Bravo, 25 μL of Ca5 dye was added to each well, and the plate was incubated for 1 hour. After 1 hour, the cell plate and compound plate were placed in FLIPR^TETRA (Molecular Devices, USA) for FLIPR detection.
Data analysis was performed using Excel 2013 (Microsoft, USA) software and GraphPad Prism 6.01 software. The maximum signal was generated by FLIPR software. Data analysis was performed using Excel (2013) and Prism 6.01. Data quality and data stability were controlled using S/B>2.50 and Z factor>0.50. The calculation formula was as follows: S/B=Avg100%/Avg0%; Z factor=1−(3*SD100%+3*SDO %)/|Avg100%-Avg0%.

hTRPC5-T478C [4] = molecular target: T1, hTRPC5-T478C; assay: hTRPC5-T478C patch clamp IC50 assay; format: cell-based; conditions: hTRPC5-T478C-HEK cells, whole-cell patch clamp, Englerin A agonist
Protocol: as §1, §2, §3
(1) Extracellular fluid: sodium chloride (145 mmol/L), potassium chloride (4 mmol/L), magnesium chloride (1.5 mmol/L), glucose (10 mmol/L), hydroxyethyl piperazineethanesulfonic acid (HEPES, 10 mmol/L). The extracellular fluid was adjusted to pH 7.4 with NaOH, and the osmotic pressure was adjusted to about 305 mOsm/L with pure water or sucrose.
(2) Intracellular fluid: cesium chloride (140 mmol/L), ethylene glycol diethyl ether diamine tetraacetic acid (EGTA, 1 mmol/L), magnesium chloride (2 mmol/L), glucose (10 mmol/L), hydroxyethyl piperazineethanesulfonic acid (HEPES, 10 mmol/L). The intracellular fluid was adjusted to pH 7.2 with […], and the osmotic pressure was adjusted to about 295 mOsm/L with pure water or sucrose.
(3) The extracellular fluid was required to be formulated once a week, and the intracellular fluid was required to be subpackaged and stored at −20° C. after formulation.
Positive reference compounds Englerin A and 2-aminoethoxydiphenyl borate (2-APB) were dissolved in 100% DMSO and stored as a 10 mM working solution after formulation. The test compounds were dissolved in 100% DMSO and stored as a 10 mM working solution after formulation. The final concentration of DMSO in the test solution should be less than 0.3%.
Whole-cell patch clamping was performed at room temperature. The electrical signals recorded using an EPC 10 USB amplifier (HEKA Elektronik, Germany) were low-pass filtered at 3 kHz and finally recorded in PatchMaster 2×90.5 software (HEKA Elektronik, Germany). In this step, the quality control standards were that the cell high-resistance seal was formed at a value greater than 500 MOhms and the detection current was greater than 0.3 nA.
The recording electrode was a borosilicate glass capillary (GC150tF-10, Harvard Apparatus Co., UK), which was pulled by a vertical puller (NARISHIGE PC-10, Japan) and polished. In this step, the quality control standard was that the electrode resistance was between 2 to 5 MΩ.
During whole-cell patch clamp recordings, a continuous filling system (BT100-2J, LongerPump, China) was used to continuously perfuse extracellular fluid. The filling system was mounted on the stage of an upright microscope (FN—S2N, Nikon, Japan), and the filling tip was manually positioned under the microscope.
The voltage instructions for hTRPC5-T478C current amplitude detection were as follows: the cells were clamped as follows: the clamping potential changed in a stepped manner from −40 mV to −80 mV (duration: 50 ms); then the clamping voltage ramped up to +80 mV, and the whole process lasted for 200 ms; then clamping was performed at +80 mV for 50 ms, and finally, the voltage returned to the clamping potential of −40 mV. […]

Structure (SMILES): c1ccc(Cn2c(NCc3ccco3)nc3ccccc32)cc1 [AC1903]
- podocyte cytoskeletal remodeling (TRPC5 [1]): protects
- protamine sulfate-induced podocyte injury (TRPC5 [1]): inhibits
- LPS-induced proteinuria (TRPC5 [2]): significantly reduces

Structure (SMILES): CC(O)c1nc2c(c(Sc3ccc(F)cc3C(F)(F)F)n1)CCN(c1cn[nH]c(=O)c1Cl)C2 (stereo not shown) [Compound WX014]
- IC50 (hTRPC5-T478C [3]): 12 nM

Structure (SMILES): C=C(c1ccc(F)cc1C(F)(F)F)c1ncnc2c1CCN(c1cn[nH]c(=O)c1Cl)C2 [Compound WX003]
- IC50 (hTRPC5-T478C [4]): 89.4 nM
- IC50 (hTRPC5-T478C [3]): 70 nM

Structure (SMILES): O=c1[nH]ncc(N2CCc3c(ncnc3Sc3ccc(F)cc3Cl)C2)c1Cl [Compound WX017]
- IC50 (hTRPC5-T478C [3]): 56 nM

Structure (SMILES): Cc1cc(N2CCCCC2)nc2ccccc12 [ML204]
- podocyte cytoskeletal remodeling (TRPC5 [1]): protects
- protamine sulfate-induced podocyte injury (TRPC5 [1]): inhibits
- LPS-induced proteinuria (TRPC5 [2]): significantly reduces
